Laboratory results published in patent publication US7157494B2, “Dimeric compounds and their use as anti-viral agents” (priority 2001, dated 2007).
In brackets after ≈: the same amount, converted by molar mass. Where two headings read alike, the source gives them in different places.

What was measured:
Influenza B/Harbin/7/95 = type: cell-based; settings: concentration that inhibited CPE by 50%; MDCK cells, up to 72 hours, MTT
Influenza A/Sydney/5/97 = type: cell-based; settings: concentration that inhibited CPE by 50%; MDCK cells, up to 72 hours, MTT
B/Hong Kong/5/72 BVLV012 = assay: Plaque reduction assay (PRA) in MDCK cells; type: cell-based, influenza B; settings: Influenza B virus, MDCK, read-out: EC50 PRA B/HongK
Protocol: (§1) Madin Darby Canine Kidney (MDCK) cells are seeded into six well tissue culture plates and grown to confluency via standard methods. Influenza viruses are diluted in a minimal volume of phosphate buffered saline supplemented with 0.2% bovine serum albumin to yield an estimated titre of 50–100 plaque forming units (pfu) per well. After adsorption to the MDCK cells for one hour at 37° C. in a 5% CO2 atmosphere the viral inocula is aspirated and replaced with viral growth media (minimal Eagle's media supplemented with BSA, trypsin and insulin/transferrin/selenium at optimal concentrations) containing sufficient agar or agarose (generally 1–2%) to cause the media to gel at room temperature and at 37° C. in a 5% CO2 atmosphere until plaques develop (generally 2–4 days). Plaques can be visualised with a suitable stain (e.g. 0.4% crystal violet in formal saline) before counting.

[1] = tested on: B/Yamanashi/166/98 BVLV007; assay: Plaque reduction assay (PRA) in MDCK cells; type: cell-based, influenza B; settings: Influenza B virus, MDCK, B/Yamanashi/166/98
Protocol: as §1

[2] = tested on: A/Victoria/3/75 BVLV017 (H3N2); assay: Plaque reduction assay (PRA) in MDCK cells; type: cell-based, influenza A H3N2; settings: Influenza A virus, MDCK; reduces plaque numbers by 50%; A/Victoria/3/75 (H3N2); read-out: EC50 PRA A/Vic
Protocol: as §1

[3] = tested on: A/Panama/2007/99 BVLV008 (H3N2); assay: Plaque reduction assay (PRA) in MDCK cells; type: cell-based, influenza A H3N2; settings: Influenza A virus, H3N2, MDCK, reduces plaque numbers by 50%; A/Panama/2007/99 (H3N2); read-out: EC50 PRA A/Pan
Protocol: as §1

[4] = tested on: A/New Caledonia/20/99 BVLV008 (H1N1); assay: Plaque reduction assay (PRA) in MDCK cells; type: cell-based, influenza A H1N1; settings: Influenza A virus, H1N1, MDCK, reduces plaque numbers by 50%; A/New Caledonia/20/99 (H1N1)
Protocol: as §1

[5] = Rat lung retention assay (intra-tracheal dosing, compound level in lung tissue); type: in vivo; settings: rat, in vivo, 0.1 mg/kg
Protocol: Rodents are anaesthetised and dosed with compound of interest by the intra-tracheal route at a dose volume of 0.8 ml/kg. The rodent is then held in the vertical position until full recovery is achieved. […] Any analytical method suitable for detection of this type of compound may be used. The time at which levels of compound fall below the sensitivity of the analytical techniques identified will determine the residency time of the compound in lung tissue.
Please note that all experiments included a co-dosed internal standard, namely compound 3 of International Patent Publication No. WO 02/20514, to permit comparison. The data are expressed as a ratio with respect to this compound, the structure of which is shown below.

## CC(=O)N[C@@H]1[C@@H](NC(=N)N)C=C(C(=O)O)O[C@H]1C(OC(=O)NCCC(=O)NCc1ccc(CNC(=O)CCNC(=O)O[C@@H]([C@@H]2OC(C(=O)O)=C[C@H](NC(=N)N)[C@H]2NC(C)=O)[C@H](O)CO)cc1)[C@H](O)CO (stereo partly drawn) [Compound 4]
Influenza B/Harbin/7/95
  ID50 B/Harbin/7/95: 0.4 ng/mL (≈ 0.402 nM)
Influenza A/Sydney/5/97
  ID50 A/Sydney/5/97: 0.3 ng/mL (≈ 0.302 nM)

## CCOC(=O)C1=C[C@@H](OC(CC)CC)[C@H](NC(C)=O)[C@@H](N)C1 [Oseltamivir]
B/Hong Kong/5/72 BVLV012
  EC50: 32 ng/mL (≈ 102 nM)
[1]; read-out: EC50 PRA B/Yam, reduces plaque numbers by 50%
  EC50: 0.7 ng/mL (≈ 2.24 nM)
[2]
  EC50: 0.11 ng/mL (≈ 0.352 nM)
[3]
  EC50: 0.3 ng/mL (≈ 0.96 nM)
[4]
  EC50: 0.23 ng/mL (≈ 0.736 nM)

## CC(=O)N[C@H]1[C@H]([C@H](OC(=O)NCCCNC(=O)Cc2ccccc2CC(=O)NCCCNC(=O)O[C@@H]([C@@H]2OC(C(=O)O)=C[C@H](NC(=N)N)[C@H]2NC(C)=O)[C@H](O)CO)[C@H](O)CO)OC(C(=O)O)=C[C@@H]1NC(=N)N [Compound 14]
Influenza B/Harbin/7/95
  ID50 B/Harbin/7/95: 0.3 ng/mL (≈ 0.293 nM)
Influenza A/Sydney/5/97
  ID50 A/Sydney/5/97: 0.2 ng/mL (≈ 0.195 nM)

## CC(=O)N[C@H]1[C@H]([C@H](OC(=O)NCCCCNS(=O)(=O)c2cccc(S(=O)(=O)NCCCCNC(=O)O[C@@H]([C@@H]3OC(C(=O)O)=C[C@H](NC(=N)N)[C@H]3NC(C)=O)[C@H](O)CO)c2)[C@H](O)CO)OC(C(=O)O)=C[C@@H]1NC(=N)N [Compound 3]
[5]; 48 h
  Ratio Mean [lung] [cmpd]/PCT AU01/01128 compound 3: 0.49
[5]; 168 h
  Ratio Mean [lung] [cmpd]/PCT AU01/01128 compound 3: 0.36
[5]; Mean [cmpd] ng/g
  concentration at 48 h: 1410 ng/g
  concentration at 168 h: 329 ng/g
Influenza B/Harbin/7/95
  ID50 B/Harbin/7/95: 0.07 ng/mL (≈ 0.0639 nM)
Influenza A/Sydney/5/97
  ID50 A/Sydney/5/97: 0.1 ng/mL (≈ 0.0913 nM)

## CC(=O)N[C@H]1[C@H]([C@H](OC(=O)NCCCNC(=O)c2ccccc2C(=O)NCCCNC(=O)O[C@@H]([C@@H]2OC(C(=O)O)=C[C@H](NC(=N)N)[C@H]2NC(C)=O)[C@H](O)CO)[C@H](O)CO)OC(C(=O)O)=C[C@@H]1NC(=N)N [Compound 12]
Influenza B/Harbin/7/95
  ID50 B/Harbin/7/95: 0.1 ng/mL (≈ 0.101 nM)
Influenza A/Sydney/5/97
  ID50 A/Sydney/5/97: >100 ng/mL

## CC(=O)N[C@H]1[C@H]([C@H](OC(=O)NCCCNC(=O)Cc2ccc(CC(=O)NCCCNC(=O)O[C@@H]([C@@H]3OC(C(=O)O)=C[C@H](NC(=N)N)[C@H]3NC(C)=O)[C@H](O)CO)cc2)[C@H](O)CO)OC(C(=O)O)=C[C@@H]1NC(=N)N [Compound 13]
Influenza B/Harbin/7/95
  ID50 B/Harbin/7/95: 0.3 ng/mL (≈ 0.293 nM)
Influenza A/Sydney/5/97
  ID50 A/Sydney/5/97: 0.1 ng/mL (≈ 0.0977 nM)

## NC12CC3CC(CC(C3)C1)C2 [Amantadine]
B/Hong Kong/5/72 BVLV012; reduces plaque numbers by 50%, B/Hong Kong/5/72
  EC50: > 10000 ng/mL
[1]; reduces plaque numbers by 50%, read-out: EC50 PRA B/Yam
  EC50: 2060 ng/mL (≈ 13600 nM)
[2]
  EC50: 220 ng/mL (≈ 1450 nM)
[3]
  EC50: 157 ng/mL (≈ 1040 nM)
[4]
  EC50: 11 ng/mL (≈ 72.7 nM)
